# Laboratory results as given in patent US6211439A, “Herbicide resistance in plants” (MGI Pharma, Inc, priority 1995, dated 2001).
# Read-outs that look alike come from different tables or passages of the source.
# Key:
# [1] = test system: control seedlings; test: Seedling assay, control (herbicide sensitive) seedlings; format: in vivo, maize
# Source text: Seeds to be used as controls in the heritability assay were obtained from regenerated plants from an herbicide sensitive cell line of the same genetic background as line XA17. These regenerated plants were crossed with pollen obtained from a herbicide sensitive inbred B73 plant grown from seed. Seeds were harvested approximately forty days after pollination.
# Twenty control seeds and ten XA17 seeds were surface sterilized with 2.6% sodium hypochlorite for twenty minutes and then washed with sterile distilled water. The seed was imbibed overnight in sterile water containing a small quantity of the fungicide, captan (N-trichloromethylthio-4-cyclohexene-1,2-dicarboximide). The mature embryos were then excised from the seed and plated scutellum side down on solid MS media without 2,4-D. Ten control seeds were plated on media containing no 214 and ten were plated in the presence of 6×10^-8M 214 which had been incorporated into the medium after autoclaving but before gelling. All ten XA17 seeds were plated in the presence of 6×10^-8 M 214. Seedlings were evaluated seven days after plating.
# XA17 seeds homozygous for the resistance trait were obtained as described in Section 6.4.6. […] Assays were conducted as described in Section 6.4.5.
# [2] = test system: Black Mexican Sweet Corn tissue; test: Free amino acid levels in Black Mexican Sweet Corn suspension cultures; format: cell-based, maize; settings: for activity at 10 µM / fold induction at 10 µM: Zea mays; for activity at 10 µM: After 48 hours of herbicide exposure; for fold induction at 10 µM: over a period of 48 hours, vs control cultures
# Experimental: (§1) Suspension culture cells were treated for 3.5 hours or 48 hours with 1×10^-5 M 997. Cells were removed from suspension by filtration and 1 gram fresh weight quantities were ground with sand with a mortar and pestle in 1 ml 5% TCA. Four ml of 5% TCA were added and the extract centrifuged at 10,000×g for 10 minutes. The pellet was reextracted and the supernatants combined and subjected to cation exchange chromatography. The samples were applied to Bond Elut SCX columns (Analytichem International Inc., Harbor City, Calif.) which had been equilibrated with 5% TCA. Following sample application, the columns were washed with 5 ml distilled, deionized water, and the amino acids were eluted with 2 ml aliquots of 5% v/v triethylamine. The aliquots were combined (6 ml), lyophilized, and subjected to amino acid analysis with a Kontron Liquemat III amino acid analyzer (Hesber, Middlesex TW5 OQU, England).
# [3] = test system: AHAS activity from line UV18; test: AHAS activity assay, line UV18; format: biochemical, maize; settings: 3×10^-6 to 3×10^-4 M 997
# Experimental: Assays were conducted as a modification of the procedure of Smith et al. (1979, Molec. Gen. Genet. 169: 299-314). Plant cell culture material was ground with sand in a cold mortar and pestle in an equal quantity (w/v) of cell disruption media containing 0.05 M potassium phosphate (pH 7.0), 0.1 mM MgSO4, and 0.5 mM dithiothreitol. The preparation was centrifuged at 11,000×g for 20 minutes and the supernatant assayed for AHAS activity. Assays were conducted in 1 ml volumes containing 0.05 M potassium phosphate (pH 8.0), 40 mM pyruvate, 5 mM MgCl2, 0.1 mM thiamine pyrophosphate, 0.2 ml cell extract, and various concentrations of the herbicide of interest. The reaction mixtures were incubated at 30° C. for 75 minutes and the reaction terminated with the addition of 0.1 ml of 50% (v/v) H2 SO4. Following further incubation at 40° C. for 20 minutes, the acetoin formed from acetolactate by acidification was quantitated using the method of Westerfield (1945, J. Biol. Chem. 161: 495). To 0.2 ml of reaction mixture, 0.8 ml of water, 0.5 ml of 0.5% (w/v) creatine, and 0.5 ml of 5% (w/v) naphthol in 10% (w/v) NaOH was added. After mixing, solutions were incubated at room temperature for one hour. The development of pink color was quantitated by measuring light absorbance at 530 nm. […]
# [4] = test system: Corn Suspension Cultures; test: Free amino acid levels in suspension cultures of the embryogenic cell line used for selection; format: cell-based, maize; settings: 1 × 10^-5 M 997
# Experimental: as §1
# The embryogenic cell line used in the selection for herbicide resistant cells (see Section 6.2.1) was different from the cell line used in the characterization of the site of action of 997 described in Section 6.1. Consequently, the effects of 997 on pool sizes of free amino acids in the cell line used in the selection procedure was also studied. The protocol described in Section 6.1.4 was followed for these studies.
# [5] = control seedlings, 6×10^-8 M 214, seven days after plating
# [6] = 1 × 10^-5 M 997, 3.5 hr., Estimated
# [7] = average ± standard deviation of three replicates
smiles,measurement,setting,value
"CC(C)C1(C)NC(c2nc3ccccc3cc2C(=O)O)=NC1=O (centres unmarked) [compound 214, 2-(5-isopropyl-5-methyl-4-oxo-2-imidazolin-2-yl)3-quinolinecarboxylic acid]",IC50,"[1]; Zea mays, read-out: concentration inhibiting shoot growth 50%",30 nM
same,average root length,[1]; [5],1.1 cm
same,average shoot length,[1]; [5],1.5 cm
"CC(C)C1(C)NC(c2ncccc2C(=O)O)=NC1=O (centres unmarked) [compound 997, 2-(5-isopropyl-5-methyl-4-oxo-2-imidazolin-2-yl)nicotinic acid]",Free asp level,"[2]; 1 × 10^-5 M 997, 3.5 hr.",175 nmol per g fresh weight tissue
same,Free cystine (Oxidized cysteine) level,"[2]; 1 × 10^-5 M 997, 3.5 hr.",103 nmol per g fresh weight tissue
same,Free glu level,"[2]; 1 × 10^-5 M 997, 3.5 hr.",360 nmol per g fresh weight tissue
same,Free gly level,"[2]; 1 × 10^-5 M 997, 3.5 hr.",98 nmol per g fresh weight tissue
same,Free his level,"[2]; 1 × 10^-5 M 997, 3.5 hr.",184 nmol per g fresh weight tissue
same,Free ile level,"[2]; 1 × 10^-5 M 997, 3.5 hr.",120 nmol per g fresh weight tissue
same,Free leu level,"[2]; 1 × 10^-5 M 997, 3.5 hr.",120 nmol per g fresh weight tissue
same,Free lys level,"[2]; 1 × 10^-5 M 997, 3.5 hr.",212 nmol per g fresh weight tissue
same,Free met level,"[2]; 1 × 10^-5 M 997, 3.5 hr.",100 nmol per g fresh weight tissue
same,Free phe level,"[2]; 1 × 10^-5 M 997, 3.5 hr.",151 nmol per g fresh weight tissue
same,Free ser level,"[2]; 1 × 10^-5 M 997, 3.5 hr.",540 nmol per g fresh weight tissue
same,Free thr level,"[2]; 1 × 10^-5 M 997, 3.5 hr.",89 nmol per g fresh weight tissue
same,Free tyr level,"[2]; 1 × 10^-5 M 997, 3.5 hr.",112 nmol per g fresh weight tissue
same,Free val level,"[2]; 1 × 10^-5 M 997, 3.5 hr.",355 nmol per g fresh weight tissue
same,Free ala level,[2]; [6],600 nmol per g fresh weight tissue
same,Free arg level,[2]; [6],60 nmol per g fresh weight tissue
same,Free trp level,[2]; [6],30 nmol per g fresh weight tissue
same,Free ala level,"[2]; 1 × 10^-5 M 997, 48 hr.",455 nmol per g fresh weight tissue
same,Free arg level,"[2]; 1 × 10^-5 M 997, 48 hr.",55 nmol per g fresh weight tissue
same,Free asp level,"[2]; 1 × 10^-5 M 997, 48 hr.",100 nmol per g fresh weight tissue
same,Free cystine (Oxidized cysteine) level,"[2]; 1 × 10^-5 M 997, 48 hr.",435 nmol per g fresh weight tissue
same,Free glu level,"[2]; 1 × 10^-5 M 997, 48 hr.",175 nmol per g fresh weight tissue
same,Free gly level,"[2]; 1 × 10^-5 M 997, 48 hr.",60 nmol per g fresh weight tissue
same,Free his level,"[2]; 1 × 10^-5 M 997, 48 hr.",310 nmol per g fresh weight tissue
same,Free ile level,"[2]; 1 × 10^-5 M 997, 48 hr.",38 nmol per g fresh weight tissue
same,Free leu level,"[2]; 1 × 10^-5 M 997, 48 hr.",16 nmol per g fresh weight tissue
same,Free lys level,"[2]; 1 × 10^-5 M 997, 48 hr.",240 nmol per g fresh weight tissue
same,Free met level,"[2]; 1 × 10^-5 M 997, 48 hr.",405 nmol per g fresh weight tissue
same,Free phe level,"[2]; 1 × 10^-5 M 997, 48 hr.",195 nmol per g fresh weight tissue
same,Free ser level,"[2]; 1 × 10^-5 M 997, 48 hr.",1160 nmol per g fresh weight tissue
same,Free trp level,"[2]; 1 × 10^-5 M 997, 48 hr.",30 nmol per g fresh weight tissue
same,Free tyr level,"[2]; 1 × 10^-5 M 997, 48 hr.",130 nmol per g fresh weight tissue
same,Free val level,"[2]; 1 × 10^-5 M 997, 48 hr.",48 nmol per g fresh weight tissue
same,activity at 10 µM,[2]; read-out: free isoleucine level relative to untreated cell cultures,31%
same,activity at 10 µM,[2]; read-out: free leucine level relative to untreated cell cultures,8%
same,activity at 10 µM,[2]; read-out: free valine level relative to untreated cell cultures,12%
same,fold induction at 10 µM,[2]; read-out: increase of free cysteine during herbicide exposure,24
same,fold induction at 10 µM,[2]; read-out: increase of free methionine during herbicide exposure,8
same,fold induction at 10 µM,[2]; read-out: increase of free serine during herbicide exposure,3
same,tolerance of AHAS activity vs AHAS from control cultures,[3],more tolerant
same,ala B/A (treated/control),[4],2.6
same,arg B/A (treated/control),[4],1.4
same,asp B/A (treated/control),[4],2.2
same,glu B/A (treated/control),[4],3.8
same,gly B/A (treated/control),[4],13.0
same,ile B/A (treated/control),[4],2.4
same,leu B/A (treated/control),[4],0.52
same,lys B/A (treated/control),[4],1.8
same,met B/A (treated/control),[4],3.8
same,phe B/A (treated/control),[4],6.6
same,ser B/A (treated/control),[4],8.7
same,thr B/A (treated/control),[4],6.4
same,tyr B/A (treated/control),[4],2.1
same,val B/A (treated/control),[4],0.27
same,Free ala level (B),[4]; [7],5750 ± 1100 n mol per g fresh wt tissue
same,Free arg level (B),[4]; [7],70 ± 60 n mol per g fresh wt tissue
same,Free asp level (B),[4]; [7],5700 ± 650 n mol per g fresh wt tissue
same,Free glu level (B),[4]; [7],8550 ± 210 n mol per g fresh wt tissue
same,Free gly level (B),[4]; [7],3130 ± 230 n mol per g fresh wt tissue
same,Free ile level (B),[4]; [7],220 ± 10 n mol per g fresh wt tissue
same,Free leu level (B),[4]; [7],120 ± 10 n mol per g fresh wt tissue
same,Free lys level (B),[4]; [7],230 ± 140 n mol per g fresh wt tissue
same,Free met level (B),[4]; [7],190 ± 80 n mol per g fresh wt tissue
same,Free phe level (B),[4]; [7],790 ± 90 n mol per g fresh wt tissue
same,Free ser level (B),[4]; [7],20000 ± 2000 n mol per g fresh wt tissue
same,Free thr level (B),[4]; [7],2960 ± 270 n mol per g fresh wt tissue
same,Free tyr level (B),[4]; [7],410 ± 80 n mol per g fresh wt tissue
same,Free val level (B),[4]; [7],140 ± 10 n mol per g fresh wt tissue
